Assay results taken from ChEMBL document CHEMBL4002633, “Synthesis, evaluation and quantitative structure-activity relationship (QSAR) analysis of Wogonin derivatives as cytotoxic agents” (Bioorg Med Chem Lett, 2017).

Columns and labels:
Format in all cases: functional, cell-based
HepG2 = test: Cytotoxicity against human HepG2 cells assessed as reduction in cell viability after 48 hrs by MTT assay; conditions: HepG2, 48 h
[1] = Cytotoxicity against human BCG823 cells assessed as reduction in cell viability after 48 hrs by MTT assay; conditions: BCG823, 48 h
A549 = test: Cytotoxicity against human A549 cells assessed as reduction in cell viability after 48 hrs by MTT assay; conditions: A549, 48 h

Row | SMILES | IC50 (HepG2; read-out: IC50) [µM] | IC50 (HepG2; read-out: pIC50 (converted)) [µM] | IC50 [1] [µM] | IC50 (A549) [µM]
1 | CNCCOc1c(O)cc(O)c2c(=O)cc(-c3ccccc3)oc12 | 64.2 | 64.6 | 59.9 | –
2 | COc1c(OCCCN2CCN(C)CC2)cc(O)c2c(=O)cc(-c3ccccc3)oc12 | 31.6 | 31.6 | 52.7 | 9.9
3 | COc1c(OCCCCN2CCCC2)cc(O)c2c(=O)cc(-c3ccccc3)oc12 | 3.61 | 3.63 | 6.34 | 1.53
4 | COc1c(OCCCCN2CCCCC2)cc(O)c2c(=O)cc(-c3ccccc3)oc12 | 1.97 | 1.95 | 18.2 | 1.15
5 | O=c1cc(-c2ccccc2)oc2c(OCCCN3CCCC3)c(O)cc(O)c12 | 58.5 | 58.9 | – | > 100
6 | CN1CCN(CCOc2c(O)cc(O)c3c(=O)cc(-c4ccccc4)oc23)CC1 | 56.6 | 56.2 | – | > 100
7 | COc1c(OCCCCNCc2ccccc2)cc(O)c2c(=O)cc(-c3ccccc3)oc12 | 45.7 | 45.7 | 48.1 | 4.59
8 | COc1c(O)cc(O)c2c(=O)cc(-c3ccc(F)cc3)oc12 | 43.9 | 43.7 | – | –
9 | COc1c(O)cc(O)c2c(=O)cc(-c3ccc(C)cc3)oc12 | 24.9 | 25.1 | – | –
10 | CN1CCN(CCCOc2c(O)cc(O)c3c(=O)cc(-c4ccccc4)oc23)CC1 | 42.6 | 42.7 | – | > 100
11 | COc1c(OCCCN2CCCC2)cc(O)c2c(=O)cc(-c3ccccc3)oc12 | 15.4 | 15.5 | 17.9 | 1.39
12 | COc1c(O)cc(O)c2c(=O)cc(-c3ccc(Br)cc3)oc12 | 38.2 | 38 | – | –
13 | O=c1cc(-c2ccccc2)oc2c(OCCN3CCCC3)c(O)cc(O)c12 | 68.5 | 69.2 | – | 67.7
14 | COc1c(OCc2nc3ccccc3[nH]2)cc(O)c2c(=O)cc(-c3ccccc3)oc12 | 29.4 | 29.5 | – | > 100
15 | COc1c(OCCCN2CCNCC2)cc(O)c2c(=O)cc(-c3ccccc3)oc12 | 9.14 | 9.12 | 12 | 10.1
16 | CN1CCN(CCCCOc2c(O)cc(O)c3c(=O)cc(-c4ccccc4)oc23)CC1 | 15.1 | 15.1 | – | > 100
17 | CCCCNCCCCOc1c(O)cc(O)c2c(=O)cc(-c3ccccc3)oc12 | 38.9 | 38.9 | 61.9 | –
18 | COc1c(O)cc(O)c2c(=O)cc(-c3cccc(F)c3)oc12 | 59.4 | 58.9 | – | –
19 | CCN(CC)CCCOc1cc(O)c2c(=O)cc(-c3ccccc3)oc2c1OC | 3.33 | 3.31 | 13.3 | 1.83
20 | O=c1cc(-c2ccccc2)oc2c(OCCNCCO)c(O)cc(O)c12 | 57 | 57.5 | 59.8 | –
21 | CCCCNCCOc1c(O)cc(O)c2c(=O)cc(-c3ccccc3)oc12 | 57.2 | 57.5 | 72.4 | –
22 | COc1c(OCCCCN2CCOCC2)cc(O)c2c(=O)cc(-c3ccccc3)oc12 | 3.3 | 3.31 | 5.3 | 1.52
23 | CCCNCCOc1c(O)cc(O)c2c(=O)cc(-c3ccccc3)oc12 | 98.4 | 97.7 | 63 | –
24 | O=c1[nH]cc(F)c(=O)[nH]1 [FLUOROURACIL] | 17.2 | – | 10.1 | 16.1
25 | COc1ccc(-c2cc(=O)c3c(O)cc(O)c(OC)c3o2)cc1 [GALANGUSTIN] | 42.4 | 42.7 | – | –
26 | COc1c(O)cc(O)c2c(=O)cc(-c3ccccc3)oc12 [WOGONIN] | 19 | 19.1 | 16.5 | 15.8
